Patent publication US8206941B2, “Three part assay for kinase or phosphatase activity” (Hoffmann-La Roche Inc., priority 2005, dated 2012)

Target: T1, PDHK2 (recombinant pyruvate dehydrogenase kinase 2) (Homo sapiens, UniProt Q15119)
T1 construct: made in house
Assay: Fast-TR FRET kinase IMAP assay, ATP dependence of the kinase reaction
Assay type: biochemical
Details: 1 μM Alexa-peptide in the kinase reaction; concentration in the kinase reaction (50 times less in readout); FRET readout 730 (30) nm; FIG. 9; read-out: EC50 of ATP dose response curve
Excerpt: • Substrate peptide (YHGHSMSAPGVSTAC (SEQ ID NO: 1)) from Biosyntan labeled with Alexa Fluor 700 • Phosphorylated substrate peptide (YHGHS(H2PO4)MSAPGVSTAC (SEQ ID NO: 1)) from Biosyntan labeled with Alexa Fluor 700 and Ru(batho) 2bpy • Kinase enzyme: PDHK2 (recombinant pyruvate dehydrogenase kinase 2, expressed according to standard methods) • IMAP™ beads from Molecular Devices (IMAP™ Explorer Kit (IPP) Product # R8062) • Buffer: IMAP™ Binding Buffer 1:5 diluted with dest. H2O+0.05% BSA Instrumentation: • Zeiss plate::vision reader • Plate: Costar 384, UV-NBS • Excitation wavelength: 355 nm • Emission filter: 730 (30) nm, 615 (10) nm
1 μl of the PDHK2 enzyme was diluted in 11 μl kinase buffer (25 mM Hepes pH 7.4, 150 mM NaCl, 18.7 mM MgCl2, 0.4 mM NH4Ac, 0.025% Triton X-100, 1.87 mM DTT). […] For the readout the final substrate concentration was 20 nM (phosphorylated) Alexa-peptide and with the final ATP concentration of 2 μM the FRET signal should be easily detectable (FIG. 5). […]
Note that these were the concentrations in the kinase reaction, in the readout they were 50 times less. […] With higher ATP concentrations the signal decreased again due to free ATP in the readout mixture which bound to the IMAP™ beads and thus decreased the binding capacity of the IMAP™ beads. […]

Q: For Nc1ncnc2c1ncn2[C@@H]1O[C@H](COP(=O)(O)OP(=O)(O)OP(=O)(O)O)[C@@H](O)[C@H]1O [ATP], which EC50 is on record?
A: Its EC50 is 3.6 µM.
